Test results as given in patent US20070225308A1, “2-Amino Quinazoline Derivative” (Kyowa Hakko Kogyo Co.,Ltd., priority 2004, published 2007).

target: T1, recombinant human PDE-IV (HSPDE4A) (Homo sapiens, UniProt P27815); test: Recombinant Human PDE-IV-Inhibiting Test; type: biochemical; conditions: at the concentration of 0.1 μmol/L; substrate [3H]cAMP 1 μmol/L; read-out: enzyme-inhibitory activity
T1 construct: made in house; host or cells: Sf9 insect cells
Protocol: Recombinant Human PDE-IV-Inhibiting Test
A human PDE cDNA (HSPDE4A) was isolated from HL-60 cells. An expected amino acid sequence thereof is the same as the sequence (HSPDE4A4) reported by Bolger G., et al (Mol. Cell. Biol., 1993, Vol. 13, p. 6558). The recombinant protein was expressed, using Sf9 insect cells. The PDE activity was measured according to the following two-step process, based on the method by Kincid R. L. and Manganiello V. C. (Method. Enzymol., 1988, Vol. 159, p. 457). [^3H]cAMP (final concentration: 1 μmol/L) was used as the substrate. The reaction was performed in a standard, mixture containing N,N-bis(2-hydroxyethyl)-2-aminoethanesulfonic acid (50 mmol/L, pH 7.2), magnesium chloride (1 mmol/L) and soybean trypsin inhibitor (0.1 mg/mL). The reaction was started by the addition of enzyme, and the reaction mixture was incubated at 30° C. for 10 to 30 minutes. The reaction was stopped by hydrochloric acid, and the formed 5′-AMP was completely decomposed by 5′-nucleotidase. The resulting mixture was treated with chromatography of DEAE-Sephadex A-25, and the eluted [^3H]adenosine was counted with a scintillation counter. The test compounds were dissolved in DMSO, and added to the system (concentration 1.7%).

T1 sequence (P27815 whole entry): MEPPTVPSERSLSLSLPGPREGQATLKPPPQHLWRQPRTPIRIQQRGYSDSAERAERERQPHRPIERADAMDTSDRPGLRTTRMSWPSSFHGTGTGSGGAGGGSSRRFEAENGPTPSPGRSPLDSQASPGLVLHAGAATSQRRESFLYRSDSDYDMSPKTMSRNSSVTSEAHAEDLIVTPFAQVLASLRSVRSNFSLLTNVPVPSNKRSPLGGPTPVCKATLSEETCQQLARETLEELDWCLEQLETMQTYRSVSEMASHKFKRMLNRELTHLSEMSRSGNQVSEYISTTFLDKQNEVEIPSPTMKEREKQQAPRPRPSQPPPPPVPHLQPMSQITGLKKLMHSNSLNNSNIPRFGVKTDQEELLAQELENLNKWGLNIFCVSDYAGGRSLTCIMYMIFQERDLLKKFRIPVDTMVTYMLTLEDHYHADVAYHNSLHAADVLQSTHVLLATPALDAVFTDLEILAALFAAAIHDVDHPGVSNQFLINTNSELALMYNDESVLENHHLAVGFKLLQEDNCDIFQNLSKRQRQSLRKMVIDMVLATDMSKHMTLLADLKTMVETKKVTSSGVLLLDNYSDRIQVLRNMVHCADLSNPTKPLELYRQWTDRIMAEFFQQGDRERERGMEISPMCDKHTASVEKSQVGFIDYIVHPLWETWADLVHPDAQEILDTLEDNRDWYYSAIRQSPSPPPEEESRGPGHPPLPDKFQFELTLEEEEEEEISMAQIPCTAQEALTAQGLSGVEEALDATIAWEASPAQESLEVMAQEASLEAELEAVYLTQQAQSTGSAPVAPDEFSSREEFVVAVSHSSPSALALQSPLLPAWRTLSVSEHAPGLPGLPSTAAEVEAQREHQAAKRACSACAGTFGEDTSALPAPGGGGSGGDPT

Question: For `COc1c(-c2ccc(C(=O)O)cc2)cc(-c2cccc([N+](=O)[O-])c2)c2cnc(N)nc12` [Compound 12, 2-Amino-7-(4-carboxyphenyl)-8-methoxy-5-(3-nitrophenyl)quinazoline], which inhibition at 0.1 µM is on record?
Answer: The inhibition at 0.1 µM was no less than 50%.

Question: With `COc1c(-c2ccc(C(=O)O)cc2)cc(-c2cccc(Cl)c2)c2cnc(N)nc12` [Compound 13, 2-Amino-7-(4-carboxyphenyl)-5-(3-chlorophenyl)-8-methoxyquinazoline] as the compound, how does the inhibition at 0.1 µM read?
Answer: The inhibition at 0.1 µM was no less than 50%.

Question: For `COc1c(-c2ccc(C(=O)O)cc2)cc(-c2cccc([N+](=O)[O-])c2)c2cnc(N(C)C)nc12` [Compound 14, 7-(4-Carboxyphenyl)-2-dimethylamino-8-methoxy-5-(3-nitrophenyl)quinazoline], which inhibition at 0.1 µM is on record?
Answer: Its inhibition at 0.1 µM is no less than 50%.

Question: Which inhibition at 0.1 µM does the source give for `COc1c(-c2ccc(C(=O)O)cc2)cc(-c2cccc(Cl)c2)c2cnc(N(C)C)nc12` [Compound 15, 7-(4-Carboxyphenyl)-5-(3-chlorophenyl)-2-dimethylamino-8-methoxyquinazoline] here?
Answer: Its inhibition at 0.1 µM is no less than 50%.

Question: Which inhibition at 0.1 µM does the source give for `CNc1ncc2c(-c3cccc(Cl)c3)cc(-c3ccc(C(=O)O)cc3)c(OC)c2n1` [Compound 18, 7-(4-Carboxyphenyl)-5-(3-chlorophenyl)-8-methoxy-2-(methylamino)quinazoline] here?
Answer: The inhibition at 0.1 µM was no less than 50%.

Question: With `CNc1ncc2c(-c3cccc(C#N)c3)cc(-c3ccc(C(=O)O)cc3)c(OC)c2n1` [Compound 19, 7-(4-Carboxyphenyl)-5-(3-cyanophenyl)-8-methoxy-2-(methylamino)quinazoline] as the compound, how does the inhibition at 0.1 µM read?
Answer: The inhibition at 0.1 µM was no less than 50%.

Question: For `CNc1ncc2c(-c3cncc(Cl)c3)cc(-c3ccc(C(=O)O)cc3)c(OC)c2n1` [Compound 20, 7-(4-Carboxyphenyl)-5-(5-chloropyridine-3-yl)-8-methoxy-2-(methylamino)quinazoline], which inhibition at 0.1 µM is on record?
Answer: The inhibition at 0.1 µM was no less than 50%.

Question: For `CNc1ncc2c(-c3cccc(Cl)c3)cc(CCC(=O)O)c(OC)c2n1` [Compound 35, 7-(2-Carboxyethyl)-5-(3-chlorophenyl)-8-methoxy-2-(methylamino)quinazoline], which inhibition at 0.1 µM is on record?
Answer: Its inhibition at 0.1 µM is no less than 50%.

Question: With `COc1c(-c2cccc(C(=O)O)c2)cc(-c2cccc(Cl)c2)c2cnc(N(C)C)nc12` [Compound 37, 7-(3-Carboxyphenyl)-5-(3-chlorophenyl)-2-dimethylamino-8-methoxyquinazoline] as the compound, how does the inhibition at 0.1 µM read?
Answer: The inhibition at 0.1 µM was no less than 50%.

Question: For `COc1c(C2=CCNCC2)cc(-c2cccc(Cl)c2)c2cnc(N(C)C)nc12` [Compound 43, 5-(3-Chlorophenyl)-2-dimethylamino-8-methoxy-7-(1,2,5,6-tetrahydropyridine-4-yl)quinazoline], which inhibition at 0.1 µM is on record?
Answer: The inhibition at 0.1 µM was no less than 50%.

tested on: not given; test: not given; conditions: not given

Question: For `CNc1ncc2c(-c3cccc(Cl)c3)cc(-c3ccc(CCC(=O)O)cc3)c(OC)c2n1` [Compound 55, 7-[4(2-Carboxyethyl)phenyl]-5-(3-chlorophenyl)-8-methoxy-2-(methylamino)quinazoline], which melting point is on record?
Answer: The melting point was 208 to 213 °C.

Question: With `CNc1ncc2c(-c3cccc(Cl)c3)cc(-c3cccc(CC(=O)O)c3)c(OC)c2n1` [Compound 59, 7-[3-(Carboxymethyl)phenyl]-5-(3-chlorophenyl)-8-methoxy-2-(methylamino)quinazoline] as the compound, how does the melting point read?
Answer: Its melting point is 258 to 261 °C.

Question: With `CNc1ncc2c(-c3cccc(Cl)c3)cc(/C=C/C(=O)O)c(OC)c2n1` [Compound 95, 7-[E-(2-carboxyethenyl)]-5-(3-chlorophenyl)-8-methoxy-2-(methylamino)quinazoline] as the compound, how does the melting point read?
Answer: Its melting point is 291 to 295 °C.

Question: For `CNc1ncc2c(-c3cccc(Cl)c3)cc(-c3ccc(C(=O)O)cc3)c(O)c2n1` [Compound 112, 7-(4-Carboxyphenyl)-5-(3-chlorophenyl)-8-hydroxy-2-(methylamino)quinazoline], which melting point is on record?
Answer: The melting point was 291 to 296 °C.
